The values below are quoted from earlier work in patent publication US8791150B2, “Pharmaceutical composition for peroral administration of diindolylmethane” (Zakrytoe Aktsionernoe Obschestvo “Veles Farma”, priority 2009, dated 2014).

Data set [1] relates to pathological neoangiogenesis. The settings on record: injected subcutaneously, 5 mg/kg daily; cited from earlier work.
The test system of data set [2] is normal (untransformed) keratinocytes. The settings on record: in vitro; cited from earlier work.
The test system of data set [3] is cellular cervical cancer lines. As to conditions: one of the three cellular cervical cancer lines studied; cited from earlier work.

As for `c1ccc2c(Cc3c[nH]c4ccccc34)c[nH]c2c1` [DIM, 3,3′-diindolylmethane], in data set [1], the “suppression of pathological neoangiogenesis” value was 74%. Moreover, the “apoptotic changes in normal keratinocytes” value in data set [2] is “did not induce any apoptotic changes”. For `OCc1c[nH]c2ccccc12` [Pluronic I3C, indole-3-carbinol], in data set [3], the LD50 is 200 µM.
